Experiments:
[1] = tested on: Gardner lymphosarcoma (GLS); test: Gardner lymphosarcoma (GLS) transplanted in mice, tumor inhibition or prolongation of survival; format: in vivo
Procedure: (§1) The compounds of this invention and those preparable by the process disclosed herein are active against transplanted tumors in mice in vivo.
(§2) The following table--Table 1--gives the results of experiments in which mice bearing transplanted Gardner lymphosarcoma (GLS), C3 H mammary tumor, B16 melanoma, P 1534(J) leukemia, P388 leukemia or 755 adenocarcinoma were treated with a compound of this invention. In the table, column 1 gives the name of the compound; column 2, the tumor system employed; column 3, the dosage schedule and column 4, the percent inhibition of tumor growth or increased life span.

P388 leukemia = P388 leukemia transplanted in mice, tumor inhibition or prolongation of survival; format: in vivo
Procedure: as §1, §2

leukemias = settings: clinical trial in humans; cited from earlier work
[2] = tested on: experimental malignancies; settings: naturally-occurring Vinca alkaloids; prior patents; cited from earlier work
755 adenocarcinoma = 755 adenocarcinoma transplanted in mice, tumor inhibition or prolongation of survival; format: in vivo
Procedure: as §1, §2

B16 melanoma = B16 melanoma transplanted in mice, tumor inhibition or prolongation of survival; format: in vivo
Procedure: as §1, §2

P 1534(J) leukemia = P 1534(J) leukemia transplanted in mice, tumor inhibition or prolongation of survival; format: in vivo; settings: P1534(J)
Procedure: as §1, §2

C3 H mammary tumor = test: C3H mammary tumor transplanted in mice, tumor inhibition or prolongation of survival; format: in vivo
Procedure: as §1, §2

CCC1(O)CC2CN(CCc3c([nH]c4ccccc34)C(C(=O)OC)(c3cc4c(cc3OC)N(C)C3C(O)(C(=O)NCCOCCNC(=O)C5(O)C(O)C6(CC)C=CCN7CCC8(c9cc(C%10(C(=O)OC)CC%11CN(CCc%12c%10[nH]c%10ccccc%12%10)CC(O)(CC)C%11)c(OC)cc9N(C)C58)C76)C(O)C5(CC)C=CCN6CCC43C65)C2)C1 (stereo not drawn) [bis[β -(4-Desacetyl VLB C-3 carboxamido)ethyl]ether disulfate]
Percent Inhibition or Prolongation of Survival Time ([1]; 0.4 mg./kg. × 9): 62% | Percent Inhibition or Prolongation of Survival Time (P388 leukemia; P388, 0.6 mg./kg. × 3): 53% | Percent Inhibition or Prolongation of Survival Time (P388 leukemia; P388, 0.9 mg./kg. × 3): 77% | Percent Inhibition or Prolongation of Survival Time (P388 leukemia; P388, 1.2 mg./kg. × 3): 85% | Toxic (Percent Inhibition or Prolongation of Survival Time) (P388 leukemia; P388, 1.8 mg./kg. × 3): Toxic

CC[C@]1(O)C[C@@H]2CN(CCc3c([nH]c4ccccc34)[C@@](C(=O)OC)(c3cc4c(cc3OC)N(C)[C@H]3[C@@](O)(C(N)=O)[C@H](O)[C@]5(CC)C=CCN6CC[C@]43[C@@H]65)C2)C1 [vindesine, 4-desacetyl VLB C-3 carboxamide]
effectiveness against leukemias (leukemias): effective against leukemias including vincristine-resistant leukemias | neurotoxicity compared with vincristine (leukemias): less neurotoxicity than does vincristine

CC[C@]12CN3CCc4c([nH]c5ccccc45)[C@@](C(=O)OC)(c4cc5c(cc4OC)N(C=O)[C@H]4[C@@](O)(C(=O)OC)[C@H](OC(C)=O)[C@]6(CC)C=CCN7CC[C@]54[C@@H]76)C[C@@H](C3)[C@H]1O2 [leuroformine]
active in the treatment of experimental malignancies in animals [2]: active

CCC1CC2CN(CCc3c([nH]c4ccccc34)C(C(=O)OC)(c3cc4c(cc3OC)N(C)C3C(O)(C(=O)OC)C(OC(C)=O)C5(CC)C=CCN6CCC43C65)C2)C1 (stereo not shown) [deoxy VLB "A"]
active in the treatment of experimental malignancies in animals [2]: active

CCC1(O)CC2CN(CCc3c([nH]c4ccccc34)C(C(=O)OC)(c3cc4c(cc3OC)N(C)C3C(O)(C(=O)NCCSSCCNC(=O)C5(O)C(O)C6(CC)C=CCN7CCC8(c9cc(C%10(C(=O)OC)CC%11CN(CCc%12c%10[nH]c%10ccccc%12%10)CC(O)(CC)C%11)c(OC)cc9N(C)C58)C76)C(O)C5(CC)C=CCN6CCC43C65)C2)C1 (stereo not drawn) [bis[β-(4-Desacetyl VLB C-3 carboxamido)ethyl]disulfide disulfate]
Percent Inhibition or Prolongation of Survival Time (755 adenocarcinoma; 755, 0.6 mg./kg. × 3): 29-34% | Percent Inhibition or Prolongation of Survival Time (755 adenocarcinoma; 755, 0.9 mg./kg. × 3): 34-54% | Percent Inhibition or Prolongation of Survival Time (755 adenocarcinoma; 755, 1.6 mg./kg. × 3): 60% | Percent Inhibition or Prolongation of Survival Time (B16 melanoma; B16, 0.6 mg./kg. × 3): 118% | number of indefinite survivors (B16 melanoma; B16, 0.6 mg./kg. × 3): 7 | Percent Inhibition or Prolongation of Survival Time (B16 melanoma; B16, 0.9 mg./kg. × 3): 86% | number of indefinite survivors (B16 melanoma; B16, 0.9 mg./kg. × 3): 7 | Percent Inhibition or Prolongation of Survival Time (B16 melanoma; B16, 1.2 mg./kg. × 3): 24% | number of indefinite survivors (B16 melanoma; B16, 1.2 mg./kg. × 3): 3 | Percent Inhibition or Prolongation of Survival Time (P 1534(J) leukemia; 0.6 mg./kg. × 3): 20-39% | Percent Inhibition or Prolongation of Survival Time (P 1534(J) leukemia; 0.9 mg./kg. × 3): 50-53% | Percent Inhibition or Prolongation of Survival Time (P 1534(J) leukemia; 1.2 mg./kg. × 3): 62% | Toxic (Percent Inhibition or Prolongation of Survival Time) (P 1534(J) leukemia; 1.2 mg./kg. × 3): Toxic | Percent Inhibition or Prolongation of Survival Time (P 1534(J) leukemia; 1.6 mg./kg. × 3): 90-99% | Percent Inhibition or Prolongation of Survival Time (C3 H mammary tumor; 0.9 mg./kg. × 3): 31-36% | Toxic (Percent Inhibition or Prolongation of Survival Time) (C3 H mammary tumor; 1.2 mg./kg. × 3): Toxic | Percent Inhibition or Prolongation of Survival Time ([1]; 0.4 mg./kg. × 9): 43-100% | Percent Inhibition or Prolongation of Survival Time ([1]; 0.9 mg./kg. × 3): 34-46% | Percent Inhibition or Prolongation of Survival Time ([1]; 1.2 mg./kg. × 3): 62-93% | Percent Inhibition or Prolongation of Survival Time (P388 leukemia; P388, 0.6 mg./kg. × 3): 33-44% | Percent Inhibition or Prolongation of Survival Time (P388 leukemia; P388, 0.9 mg./kg. × 3): 39-47% | Percent Inhibition or Prolongation of Survival Time (P388 leukemia; P388, 1.2 mg./kg. × 3): 53-61%

CCC1(O)CC2CN(CCc3c([nH]c4ccccc34)C(C(=O)OC)(c3cc4c(cc3OC)N(C)C3C(O)(C(=O)NCCCCNC(=O)C5(O)C(O)C6(CC)C=CCN7CCC8(c9cc(C%10(C(=O)OC)CC%11CN(CCc%12c%10[nH]c%10ccccc%12%10)CC(O)(CC)C%11)c(OC)cc9N(C)C58)C76)C(O)C5(CC)C=CCN6CCC43C65)C2)C1 (stereo not shown) [1,4-bis(4-Desacetyl VLB C-3 carboxamido)butane disulfate]
Percent Inhibition or Prolongation of Survival Time ([1]; 0.4 mg./kg. × 9): 40%

CC[C@]12CN3CCc4c([nH]c5ccccc45)[C@@](C(=O)OC)(c4cc5c(cc4OC)N(C)[C@H]4[C@@](O)(C(=O)OC)[C@H](OC(C)=O)[C@]6(CC)C=CCN7CC[C@]54[C@@H]76)C[C@H](C3)[C@H]1O2 [leurosine]
active in the treatment of experimental malignancies in animals [2]: active

CCC1(O)CC2CN(CCc3c([nH]c4ccccc34)C(C(=O)OC)(c3cc4c(cc3OC)N(C)C3C(O)(C(=O)NCC[Se][Se]CCNC(=O)C5(O)C(O)C6(CC)C=CCN7CCC8(c9cc(C%10(C(=O)OC)CC%11CN(CCc%12c%10[nH]c%10ccccc%12%10)CC(O)(CC)C%11)c(OC)cc9N(C)C58)C76)C(O)C5(CC)C=CCN6CCC43C65)C2)C1 (stereo not drawn) [bis[β-(4-Desacetyl VLB C-3 carboxamido)ethyl]diselenide disulfate]
Percent Inhibition or Prolongation of Survival Time (755 adenocarcinoma; 755, 0.6 mg./kg. × 3): 26-32% | Percent Inhibition or Prolongation of Survival Time (755 adenocarcinoma; 755, 0.9 mg./kg. × 3): 21-62% | Percent Inhibition or Prolongation of Survival Time (755 adenocarcinoma; 755, 1.2 mg./kg. × 3): 31-42% | Percent Inhibition or Prolongation of Survival Time (755 adenocarcinoma; 755, 1.8 mg./kg. × 3): 89% | Percent Inhibition or Prolongation of Survival Time (P 1534(J) leukemia; 1.2 mg./kg. × 3): 21% | Percent Inhibition or Prolongation of Survival Time (P 1534(J) leukemia; 1.8 mg./kg. × 3): 66% | Percent Inhibition or Prolongation of Survival Time (C3 H mammary tumor; 1.5 mg./kg. × 3): 56% | Percent Inhibition or Prolongation of Survival Time (C3 H mammary tumor; 2.0 mg./kg. × 3): 72% | Toxic (Percent Inhibition or Prolongation of Survival Time) (C3 H mammary tumor; 2.5 mg./kg. × 3): Toxic | Percent Inhibition or Prolongation of Survival Time ([1]; 1.5 mg./kg. × 3): 29% | Percent Inhibition or Prolongation of Survival Time ([1]; 2.0 mg./kg. × 3): 57% | Percent Inhibition or Prolongation of Survival Time ([1]; 2.5 mg./kg. × 3): 72%

CCC1(O)CC2CN(CCc3c([nH]c4ccccc34)C(C(=O)OC)(c3cc4c(cc3OC)N(C)C3C(O)(C(=O)OC)CC5(CC)C=CCN6CCC43C65)C2)C1 (stereo not shown) [4-desacetoxyvinblastine]
active in the treatment of experimental malignancies in animals [2]: active

CCC1(O)CN2CCc3c([nH]c4ccccc34)C(C(=O)OC)(c3cc4c(cc3OC)N(C)C3C(O)(C(=O)OC)CC5(CC)C=CCN6CCC43C65)CC(C2)C1O (stereo not shown) [4-desacetoxy-3'-hydroxyvinblastine]
active in the treatment of experimental malignancies in animals [2]: active

CCC1(O)CC2CN(CCc3c([nH]c4ccccc34)C(C(=O)OC)(c3cc4c(cc3OC)N(C)C3C(O)(C(=O)OC)C(OC(C)=O)C5(CC)C=CCN6CCC43C65)C2)C1 (stereo not shown) [leurosidine]
active in the treatment of experimental malignancies in animals [2]: active

CCC1(O)CN2CCc3c([nH]c4ccccc34)C(C(=O)OC)(c3cc4c(cc3OC)N(C)C3C(O)(C(=O)OC)C(OC(C)=O)C5(CC)C=CCN6CCC43C65)CC(O)(C2)C1 (stereo not shown) [leurocolombine]
active in the treatment of experimental malignancies in animals [2]: active
